Test systems include MCF7; HCT-15; MDA-N; OVCAR-4; Malme-3M; NCI-H23; K562; NCI-H522; SN12C; LOX IMVI; OVCAR-5; SW-620; TK-10; SF-268; IGROV-1; BT-549; SNB-19; HL-60; MOLT-4; CCRF-CEM.
Test in all cases: NCI-60 cell line screen, 48 h

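1) Cells in 96-well plates. 2) Compound, 48 h, 5 concentrations. 3) Linear interpolation between surrounding doses. 4) Unreached endpoint = highest concentration. At the GI50, growth is halved.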 Activity calls are given as the source filed them. Rule as the data show it: active = GI50 up to about 1.1 µM and inactive = higher.

For `NNC(=O)CNc1cccc(Br)c1`, the GI50 was > 100 µM (inactive) in the experiment with MCF7; over 100 µM in the experiment on HCT-15; > 100 µM (inactive) in the experiment on MDA-N; > 100 µM (inactive) in the experiment with OVCAR-4; > 100 µM (inactive) in the experiment on Malme-3M; > 100 µM (inactive) in the experiment with NCI-H23. For the same compound, the GI50 with K562, with NCI-H522, with SN12C, with LOX IMVI, in the experiment with OVCAR-5 and in the experiment on SW-620 was > 100 µM (inactive) each time. Also, the GI50 with TK-10 is > 100 µM (inactive); with SF-268, > 100 µM (inactive); with IGROV-1, > 100 µM (inactive); in the experiment on BT-549, > 100 µM (inactive); in the experiment on SNB-19, > 100 µM (inactive); in the experiment on HL-60, 74.8 µM (inactive).

In the case of `O=C1CC2C(=O)c3ccccc3CC2c2ccccc21` (stereo unspecified), the GI50 in the experiment with MCF7 was 37.2 µM (inactive); in the experiment with HCT-15, 24.3 µM; in the experiment on MDA-N, 36.3 µM (inactive); with OVCAR-4 it was 29.5 µM (inactive); in the experiment on Malme-3M it was 39 µM (inactive); in the experiment on K562, 21.3 µM (inactive). The GI50 in the experiment on NCI-H522 was 57.4 µM (inactive); with SN12C, 55.3 µM (inactive); with LOX IMVI it was 38.5 µM (inactive); with OVCAR-5 it was > 100 µM (inactive); with SW-620, 49 µM (inactive); with TK-10, 87.9 µM (inactive). Further, the GI50 in the experiment on SF-268 is 56.8 µM (inactive); in the experiment on IGROV-1, 27 µM (inactive); in the experiment with MOLT-4 it was 22.4 µM (inactive); with BT-549 it was 81.8 µM (inactive); in the experiment with SNB-19 it was > 100 µM (inactive); in the experiment with HL-60 it was 17.9 µM (inactive).

As to `O=C1OCC2OC(=O)c3cc(O)c(O)c(O)c3-c3c(O)c(O)c(O)c4c3C(=O)OC(C2OC(=O)c2cc(O)c(O)c(O)c2-c2c1cc(O)c(O)c2O)C1OC(=O)c2c-4c(O)c(O)c(O)c2[C@@H]1C(O)C(O)C(O)C(O)CO` (stereo partly specified), the GI50 was 3.82 µM (inactive) in the experiment on MCF7; 16.1 µM in the experiment on HCT-15; 7.11 µM (inactive) in the experiment on MDA-N; 16.6 µM (inactive) in the experiment on OVCAR-4; 18.1 µM (inactive) with Malme-3M; 19.2 µM (inactive) in the experiment with NCI-H23. Moreover, the GI50 was 10.5 µM (inactive) in the experiment on K562; 18.8 µM (inactive) with NCI-H522; 16 µM (inactive) in the experiment on SN12C; 2.25 µM (inactive) in the experiment with LOX IMVI; 16 µM (inactive) in the experiment on OVCAR-5; 19.5 µM (inactive) with SW-620. Moreover, the GI50 is 21.5 µM (inactive) in the experiment on SF-268; 4.75 µM (inactive) in the experiment on CCRF-CEM; 20 µM (inactive) in the experiment on IGROV-1; 20.4 µM (inactive) in the experiment on MOLT-4; 22.8 µM (inactive) with BT-549; 46 µM (inactive) with SNB-19. Further, the GI50 with HL-60 is 17 µM (inactive).

Take `Nc1n[nH]c2nc3ccc(C(F)(F)F)cc3nc12`: the GI50 in the experiment with MCF7 was 15.3 µM (inactive); in the experiment on HCT-15 it was 23.1 µM; in the experiment with MDA-N, 35.3 µM (inactive); in the experiment with OVCAR-4, 42.6 µM (inactive); in the experiment on Malme-3M, 71.6 µM (inactive); in the experiment with NCI-H23, 22.2 µM (inactive). The GI50 in the experiment with K562 is 42.7 µM (inactive); in the experiment on NCI-H522 it was 20.3 µM (inactive); with SN12C it was 26.2 µM (inactive); in the experiment on LOX IMVI, 18.6 µM (inactive); in the experiment with OVCAR-5 it was 25.6 µM (inactive); in the experiment on SW-620 it was 19.3 µM (inactive). For the same compound, the GI50 was 32.4 µM (inactive) in the experiment with TK-10; 33.7 µM (inactive) with SF-268; 17 µM (inactive) with CCRF-CEM; 21.9 µM (inactive) in the experiment with IGROV-1; 43.5 µM (inactive) in the experiment with MOLT-4; 23.1 µM (inactive) with BT-549. Besides, in the experiment on SNB-19, the GI50 was 32.2 µM (inactive).

Regarding `Nc1nc(NCC2(CO)CC(CCc3ccccc3)C2)cc(=O)[nH]1` (stereo unspecified), the GI50 is > 100 µM (inactive) in the experiment with MCF7; over 100 µM in the experiment on HCT-15; > 100 µM (inactive) in the experiment with MDA-N; > 100 µM (inactive) in the experiment on OVCAR-4; > 100 µM (inactive) in the experiment on Malme-3M; > 100 µM (inactive) in the experiment on NCI-H23. Moreover, the GI50 in the experiment on K562 was 26.2 µM (inactive); in the experiment on NCI-H522, > 100 µM (inactive); in the experiment on SN12C, > 100 µM (inactive); in the experiment on LOX IMVI it was > 100 µM (inactive); in the experiment with OVCAR-5, > 100 µM (inactive); in the experiment on SW-620, > 100 µM (inactive). Also, the GI50 is > 100 µM (inactive) in the experiment with SF-268; 78.2 µM (inactive) with CCRF-CEM; > 100 µM (inactive) in the experiment with IGROV-1; 55.2 µM (inactive) with MOLT-4; > 100 µM (inactive) in the experiment on BT-549; > 100 µM (inactive) in the experiment on SNB-19. Moreover, the GI50 with HL-60 is 82.8 µM (inactive).

As to `O=C(/C=C/c1ccccc1)CCc1c(O)c2ccccc2oc1=O`, the GI50 with MCF7 is 60.4 µM (inactive); with HCT-15 it was 76.7 µM; in the experiment with MDA-N, 71.9 µM (inactive); with OVCAR-4 it was 76.9 µM (inactive); in the experiment with Malme-3M it was > 100 µM (inactive); in the experiment with NCI-H23, 65.5 µM (inactive). Moreover, the GI50 with K562 was 49.4 µM (inactive); in the experiment with NCI-H522 it was 74.3 µM (inactive); with SN12C, > 100 µM (inactive); in the experiment on LOX IMVI, 52.5 µM (inactive); in the experiment with OVCAR-5 it was > 100 µM (inactive); with SW-620, 53.8 µM (inactive). Besides, the GI50 with SF-268 is > 100 µM (inactive); in the experiment on CCRF-CEM, 45.4 µM (inactive); with IGROV-1, > 100 µM (inactive); in the experiment with MOLT-4 it was 27.7 µM (inactive); in the experiment on BT-549, 32.4 µM (inactive); in the experiment with SNB-19 it was > 100 µM (inactive). Moreover, in the experiment with HL-60, the GI50 is > 10 µM (inactive).

As for `COc1ccc(N2C=Nn3c(nc4sc5c(c4c3=O)CCCC5)C2)cc1`, the GI50 was > 100 µM (inactive) with MCF7; over 100 µM with HCT-15; > 100 µM (inactive) in the experiment with MDA-N; > 100 µM (inactive) with OVCAR-4; 18.1 µM (inactive) with Malme-3M; 26.1 µM (inactive) in the experiment with NCI-H23. Besides, the GI50 in the experiment on K562 is > 100 µM (inactive); with NCI-H522, 16.3 µM (inactive); in the experiment on SN12C it was > 100 µM (inactive); with LOX IMVI, 33.6 µM (inactive); in the experiment on OVCAR-5, 32.4 µM (inactive); in the experiment with SW-620, > 100 µM (inactive). In addition, the GI50 in the experiment with TK-10 was 77.1 µM (inactive); with SF-268, 19.2 µM (inactive); in the experiment with CCRF-CEM it was > 100 µM (inactive); with IGROV-1, > 100 µM (inactive); with MOLT-4, > 100 µM (inactive); in the experiment on BT-549, 20.7 µM (inactive). Moreover, the GI50 with SNB-19 is 28.2 µM (inactive).

Regarding `CS(=O)(=O)c1ccc(/C=N/NC(N)=S)cc1`, the GI50 was > 100 µM (inactive) in the experiment with MCF7; over 100 µM in the experiment with HCT-15; > 100 µM (inactive) with MDA-N; > 100 µM (inactive) in the experiment on OVCAR-4; > 100 µM (inactive) with Malme-3M; > 100 µM (inactive) with NCI-H23. Moreover, the GI50 in the experiment on K562, in the experiment with NCI-H522, in the experiment on SN12C, with LOX IMVI, in the experiment on OVCAR-5 and with SW-620 was > 100 µM (inactive) each time. Further, the GI50 in the experiment with TK-10, with SF-268, with IGROV-1, in the experiment on MOLT-4, with BT-549 and in the experiment on SNB-19 was > 100 µM (inactive) in each case. Further, the GI50 in the experiment with HL-60 is > 100 µM (inactive).

Consider `CCCCON1C[C@H](OC(C)=O)C(OC(C)=O)[C@H](OC(C)=O)C1` (stereo partly specified), for which the GI50 in the experiment on MCF7 was > 100 µM (inactive); in the experiment on HCT-15 it was over 100 µM; in the experiment with MDA-N, > 100 µM (inactive); with OVCAR-4, 7.14 µM (inactive); with Malme-3M, > 100 µM (inactive); in the experiment on NCI-H23, > 100 µM (inactive). The GI50 is > 100 µM (inactive) with K562; > 100 µM (inactive) in the experiment on NCI-H522; > 100 µM (inactive) in the experiment on SN12C; > 100 µM (inactive) in the experiment with LOX IMVI; > 10 µM (inactive) with SW-620; > 100 µM (inactive) in the experiment on TK-10. Besides, the GI50 in the experiment with SF-268, with CCRF-CEM, with IGROV-1, in the experiment on MOLT-4, in the experiment with BT-549 and in the experiment on SNB-19 was > 100 µM (inactive) each time. The GI50 with HL-60 was > 100 µM (inactive).

For the compound `CC1CCCN(CP(=O)(c2ccccc2)c2ccccc2)C1` (stereo unspecified), the GI50 with MCF7 is > 100 µM (inactive); with HCT-15, over 100 µM; with MDA-N it was > 100 µM (inactive); in the experiment on OVCAR-4, 94.4 µM (inactive); with Malme-3M, > 100 µM (inactive); in the experiment with NCI-H23, > 100 µM (inactive). Moreover, the GI50 in the experiment on K562, in the experiment on NCI-H522, in the experiment on SN12C, in the experiment on LOX IMVI, in the experiment with OVCAR-5 and with SW-620 was > 100 µM (inactive) throughout. The GI50 with TK-10 was > 100 µM (inactive); with SF-268, > 100 µM (inactive); with IGROV-1, > 100 µM (inactive); in the experiment on BT-549, > 100 µM (inactive); with SNB-19, > 100 µM (inactive); in the experiment on HL-60 it was 13.6 µM (inactive).

Regarding `Oc1ccc(-c2nc3ccc(F)cc3s2)cc1`, the GI50 in the experiment on MCF7 was 17.5 µM (inactive); with HCT-15, 18 µM; with MDA-N it was 23.5 µM (inactive); in the experiment on OVCAR-4, 23 µM (inactive); with Malme-3M it was 18.5 µM (inactive); in the experiment on NCI-H23, 19.7 µM (inactive). Besides, the GI50 was 29.4 µM (inactive) in the experiment on K562; 13.2 µM (inactive) in the experiment with NCI-H522; 18.4 µM (inactive) with SN12C; 20.4 µM (inactive) in the experiment on LOX IMVI; 21.7 µM (inactive) with OVCAR-5; 29.9 µM (inactive) in the experiment with SW-620. Moreover, the GI50 is 16 µM (inactive) in the experiment with TK-10; 23.2 µM (inactive) in the experiment with SF-268; 16.9 µM (inactive) with IGROV-1; 27 µM (inactive) in the experiment on MOLT-4; 18.1 µM (inactive) in the experiment with BT-549; 19.3 µM (inactive) in the experiment with SNB-19. The GI50 in the experiment with HL-60 was 22.4 µM (inactive).

For the origin of these results see ChEMBL document CHEMBL1201862, “PubChem BioAssay data set” (2004).
